Laboratory results published in patent publication US5436260A, “Angiotensin II receptor antagonists” (Warner-Lambert Company, priority 1994, dated 1995).
Structures can show the parent of a compound that is named as a salt.

Biological target: T1, AT1 receptor (Rattus norvegicus, UniProt P25095)
T1 construct: rat liver membranes; from tissue; host or cells: rat liver membranes
T1 sequence (P25095 1-359): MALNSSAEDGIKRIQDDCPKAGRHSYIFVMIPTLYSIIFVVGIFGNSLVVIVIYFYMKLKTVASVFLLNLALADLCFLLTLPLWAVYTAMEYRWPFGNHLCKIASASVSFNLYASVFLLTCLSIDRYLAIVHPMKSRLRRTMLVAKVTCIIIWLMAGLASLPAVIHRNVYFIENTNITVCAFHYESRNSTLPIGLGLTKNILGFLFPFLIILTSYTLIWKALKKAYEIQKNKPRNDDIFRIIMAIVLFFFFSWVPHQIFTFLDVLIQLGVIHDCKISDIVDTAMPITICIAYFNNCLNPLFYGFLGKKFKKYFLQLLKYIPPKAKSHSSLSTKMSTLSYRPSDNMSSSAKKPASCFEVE
Assay: [^3 H]angiotensin II binding to rat liver membranes (AT1 test)
Conditions: inhibition of [^3 H]angiotensin II binding
Description: The compounds of Formula I or Ia are antagonists of angiotensin II. Dudley, D. T., et al, Molecular Pharmacology 1990;38:370-377 reported the existence of 2 subclasses of angiotensin II binding sites in rabbit adrenal gland and uterus and in the rat liver which differ in their tissue distribution and affinity for various peptide and nonpeptide ligands. Thus, the compounds of Formula I or Ia were tested for their ability to inhibit [^3 H]angiotensin II binding to rat liver membranes (AT1 test) according to the methods described by Dudley, D. T., et al, Molecular Pharmacology 1990;38:370-7. […] It is well established that compounds which antagonize the effect of angiotensin II at the AT1 receptor have value for treatment of hypertension and heart failure.

Row | IC50 [nM] | SMILES
1 | 35.7 | CCCCc1ncc(/C=C2/C(=O)N(CO)C(=O)N2Cc2csc(C)n2)n1Cc1ccc(C(=O)OC)cc1 [Example 101, Methyl Z-4-[[2-butyl-5-[[1-(hydroxymethyl)-3-[(2-methyl-4-thiazolyl)methyl]-2,5-dioxo-4-imidazolidinylidene]methyl]-1H-imidazol-1-yl]methyl]benzoatedihydrochloride]
2 | > 1000 | CCCCc1ncc(C(O)C2C(=O)NC(=O)N2CCCC)n1Cc1ccc(C(=O)OC)cc1 (stereo not shown) [Example 29, Methyl 4-[[2-butyl-5-[(3-butyl-2,5-dioxo-4-imidazolidinyl)hydroxymethyl]-1H-imidazol-1-yl]methyl]benzoate]
3 | 0.64 | CCCCc1ncc(/C=C2/C(=O)N(CCCC)C(=O)N2Cc2cccs2)n1Cc1ccc(C(=O)O)cc1 [Example 75, Z-4-[[2-butyl-5-[[1-butyl-2,5-dioxo-3-(2-thienylmethyl)-4-imidazolidinylidene]methyl]-1H-imidazol-1-yl]methyl]benzoic acid]
4 | 6.39 | CCCCc1ncc(/C=C2/C(=O)N(CCCC)C(=O)N2Cc2cccs2)n1Cc1ccc(C(=O)O)cc1 [Example 25]
5 | 111 | CCCCc1ncc(/C=C2\C(=O)NC(=O)N2Cc2ccc(OC)c(OC)c2)n1Cc1ccc(C(=O)O)cc1 [Example 21a]
6 | 12.8 | CCCCc1ncc(/C=C2/C(=O)N(COC)C(=O)N2Cc2ccccc2)n1Cc1ccc(C(=O)OC)cc1 [Example 55, Methyl Z-4-[[2-butyl-5-[[1-(methoxymethyl)-2,5-dioxo-3-(phenylmethyl)-4-imidazolidinylidene]methyl]-1H-imidazol-1-yl]methyl]benzoate monohydrochloride]
7 | 26.6 | CCCCCCN1C(=O)/C(=C/c2cnc(CCCC)n2Cc2ccc(C(=O)OC)cc2)N(Cc2ccccc2)C1=O [Example 50, Methyl Z-4-[[2-butyl-5-[[1-hexyl-2,5-dioxo-3-(phenylmethyl)-4-imidazolidinylidene]methyl]-1H-imidazol-1-yl]methyl]benzoate monohydrochloride]
8 | 10.1 | CCCCc1ncc(/C=C2/C(=O)N(CCCC)C(=O)N2Cc2ccno2)n1Cc1ccc(C(=O)OC)cc1 [Example 106, Methyl Z-4-[[2-butyl-5-[[1-butyl-3-(5-isoxazolyl-methyl)-2,5-dioxo-4-imidazolidinylidene]methyl]-1H-imidazol-1-yl]methyl]benzoate monohydrochloride]
9 | 884 | CCCCc1ncc(/C=C2/C(=O)N(CCCC)C(=O)N2C(c2ccccc2)c2ccccc2)n1Cc1ccc(C(=O)OC)cc1 [Example 42, Methyl Z-4-[[2-butyl-5-[[1-butyl-2,5-dioxo-3-(diphenylmethyl)-4-imidazolidinylidene]methyl]-1H-imidazol-1-yl]methyl]benzoate mono hydrochloride]
10 | 4.3 | CCCCc1ncc(/C=C2/C(=O)NC(=O)N2Cc2ccc(Cl)cc2)n1Cc1ccc(C(=O)OC)cc1 [Example 64, Methyl Z-4-[[2-butyl-5-[[3-[(4-chlorophenyl)methyl]-2,5-dioxo-4-imidazolidinylidene]methyl]-1H-imidazol-1-yl]methyl]benzoate monohydrochloride]
11 | 9.48 | CCCCCCN1C(=O)/C(=C/c2cnc(CCCC)n2Cc2ccc(C(=O)OC)cc2)N(Cc2ccsc2)C1=O [Example 49, Methyl Z-4-[[2-butyl-5-[[1-hexyl-2,5-dioxo-3-(3-thienylmethyl)-4-imidazolidinylidene]methyl]-1H-imidazol-1-yl]methyl]benzoate monohydrochloride]
12 | 4.58 | CCCCc1ncc(/C=C2\C(=O)N(Cc3csc(C)n3)C(=O)N2CCCC)n1Cc1ccc(C(=O)OC)cc1 [Example 86, Methyl E-4-[[2-butyl-5-[[3-butyl-1-[(2-methyl-4-thiazolyl)methyl]-2,5-dioxo-4-imidazolidinylidene]methyl]-1H-imidazol-1-yl]methyl]benzoate dihydrochloride]
13 | 1170 | CCCCc1ncc(/C=C2/NC(=O)N(CCCC)C2=O)n1Cc1ccc(C(=O)OC)cc1 [Example 32b, Methyl E-4-[[2-butyl-5-[(1-butyl-2,5-dioxo-4-imidazolidinylidene)methyl]-1H-imidazol-1-yl]methyl]benzoate]
14 | 14.5 | CCCCc1ncc(/C=C2/C(=O)N(CCCC)C(=O)N2CCc2cccs2)n1Cc1ccc(C(=O)OC)cc1 [Example 79, Methyl Z-4-[[2-butyl-5-[[1-butyl-2,5-dioxo-3-[2(2-thienyl)ethyl]-4-imidazolidinylidene]methyl]-1H-imidazol-1-yl]methyl]benzoate monohydrochloride]
15 | 2.47 | CCCCc1ncc(/C=C2/C(=O)N(CCCC)C(=O)N2Cc2csc(C)n2)n1Cc1ccc(C(=O)OC)cc1Cl [Example 110, Methyl Z-4-[[2-butyl-5-[[1-butyl-3-[(2-methyl-4-thiazolyl)methyl]-2,5-dioxo-4-imidazolidinylidene[methyl]-1H-imidazol-1-yl]methyl]-3chloro benzoatemonohydrochloride]
16 | 8.8 | CCCCc1ncc(/C=C2/C(=O)NC(=O)N2CCC(C)C)n1Cc1ccc(C(=O)O)cc1 [Example 2b]
17 | 8.49 | CCCCc1ncc(/C=C2/C(=O)N(CCCC)C(=O)N2CCCC)n1Cc1ccc(C(=O)OC)cc1 [Example 33, Methyl Z-4-[[2-butyl-5-[(1,3-dibutyl-2,5-dioxo-4-imidazolidinylidene)methyl]-1 H-imidazol-1-yl]methyl]benzoate monohydrochloride]
18 | 3.21 | CCCCc1ncc(/C=C2/C(=O)NC(=O)N2CCCC)n1Cc1ccc(NS(=O)(=O)C(F)(F)F)cc1 [Example 71a, Z-N-[4-[[2-butyl-5-[(3-butyl-2,5-dioxo-4-imidazolidinylidene)methyl]-1H-imidazol-1-1yl]methyl]phenyl]-1,1,1,-trifluoromethanesulfonamide]
19 | 89.3 | CCCCc1ncc(/C=C2/C(=O)NC(=O)N2Cc2ccc(OC)c(OC)c2)n1Cc1ccc(C(=O)O)cc1 [Example 21b]
20 | 0.6 | CCCCc1ncc(/C=C2/C(=O)N(CCCC)C(=O)N2Cc2ccc(C)s2)n1Cc1ccc(C(=O)O)cc1 [Example 74, Z-4-[[2-butyl-5-[[1-butyl-3-[(5-methyl-2-thienyl)methyl]-2,5-dioxo-4imidazolidinylidene]methyl]-1H-imidazol-1-yl]methyl]benzoic acid]
21 | 1.21 | CCCCc1ncc(/C=C2/C(=O)N(CCCC)C(=O)N2Cc2csc(N)n2)n1Cc1ccc(C(=O)OC)cc1 [Example 62, Methyl Z-4-[[2-butyl-5-[[1-butyl-3-[(2-amino-4-thiazolyl)methyl]-2,5-dioxo-4-imidazolidinylidene]methyl]-1H-imidazol-1-yl]methyl]benzoate dihydrochloride]
22 | 6.92 | CCCCc1ncc(/C=C2/C(=O)NC(=O)N2Cc2cccs2)n1Cc1ccc(C(=O)OC)cc1 [Example 16b, (Z)-4-[[2-Butyl-5-[[2,5-dioxo-3-((2-thienyl)methyl)-4-imidazolidinylidene]methyl]-1H-imidazole-1-yl]methyl]benzoic acid, methyl ester]
23 | 3.33 | CCCCc1ncc(/C=C2/C(=O)N(CCCC)C(=O)N2CC2CCCCC2)n1Cc1ccc(C(=O)OC)cc1 [Example 43, Methyl Z-4-[[2-butyl-5-[[1-butyl-3-(cyclohexylmethyl)-2,5-dioxo-4-imidazolidinylidene]methyl]-1H-imidazol-1-yl]methyl]benzoate mono hydrochloride]
24 | 14.3 | CCCCc1ncc(/C=C2/C(=O)N(CCCC)C(=O)N2Cc2ccc(C(=O)OC)cc2)n1Cc1ccc(C(=O)OC)cc1 [Example 37, Methyl Z-4-[[2-butyl-5-[[1-butyl-3-[[4-(methoxycarbonyl)phenyl]methyl]-2,5-dioxo-4-imidazolidinylidene]methyl]-1H-imidazol-1-yl]methyl]benzoate monohydrochloride]
25 | 29.5 | CCCCc1ncc(/C=C2/C(=O)N(COC)C(=O)N2CCCC)n1Cc1ccc(C(=O)OC)cc1 [Example 54, Methyl Z-4-[[2-butyl-5-[[3-butyl-1-(methoxymethyl)-2,5-dioxo-4-imidazolidinylidene]methyl]-1H-imidazol-1-yl]methyl]benzoate monohydrochloride]
26 | 21.9 | CCCCc1ncc(/C=C2/C(=O)N(CCCC)C(=O)N2Cc2cc(Br)cs2)n1Cc1ccc(C(=O)OC)cc1 [Example 78, Methyl Z-4-[[5-[[3-[(4-bromo-2-thienyl)methyl]-1-butyl-2,5-dioxo-4-imidazolidinylidene]methyl]-2-butyl-1H-imidazol-1-yl]methyl]benzoate monohydrochloride]
27 | 2.63 | CCCCc1ncc(/C=C2\C(=O)N(CCCC)C(=O)N2Cc2csc(C)n2)n1Cc1ccc(C(=O)O)cc1 [Example 60, E-4-[[2-butyl-5-[[1-butyl-3-[(2-methyl-4-thiazolyl)methyl]-2,5-dioxo-4-imidazolidinylidene]methyl]-1H-imidazol-1-yl]methyl]benzoic acid]
28 | 17.8 | CCCCc1ncc(/C=C2/C(=O)N(CCCC)C(=O)N2Cc2ccc(Br)s2)n1Cc1ccc(C(=O)OC)cc1 [Example 77, Methyl Z-4-[[5-[[3-[(5-bromo-2-thienyl)methyl]-1-butyl-2,5-dioxo-4-imidazolidinylidene]methyl]-2-butyl-1H-imidazol-1-yl]methyl]benzoate monohydrochloride]
